Results taken from patent US11958812B2, “3, 5-disubstituted pyridine and 3, 5-disubstituted pyridazine derivatives and pharmaceutical use of same” (MITSUBISHI TANABE PHARMA CORPORATION, priority 2018, dated 2024).

Target: T1, ATX activity in plasma (Mus musculus, UniProt Q9R1E6)
T1 construct: from tissue; host or cells: plasma of female C57BL/6J mice (bleomycin-induced lung fibrosis model)
Experiment: ATX activity in plasma in the mouse bleomycin-induced lung fibrosis model
Assay type: in vivo, female C57BL/6J mouse
Conditions: 30 mg/kg, bid, oral, 14 days; FIG. 5
Protocol: A compound administration solution prepared by wet pulverization in a mixer mill (type: MM400) for 10 min and adjusting to a given concentration with 0.5% aqueous carboxymethylcellulose solution was orally administered to male Wistar rat (5-week-old when used) at 5 mL/kg. Blood samples were collected from the cervical vein over time at 8 to 24 hr after administration. The blood was heparin-treated using a micro blood collection tube Capiject (CJ-AL, TERUMO CORPORATION), and the plasma was separated by centrifugation (4° C., 12,000 rpm, for 2 min), and preserved at −80° C. […] The measurement of ATX activity in plasma was evaluated using the concentration of choline in the plasma, which was liberated from lysophosphatidylcholine (substrate of ATX) by the lysophospholipase D activity of ATX, as an index. […] The reaction mixture (10 μL) after reaction for 6 hr and 45 μL of reagent R^1 solution (100 mM Tris-HCl pH 8.0, 0.5 mM TOOS, 10 U/mL peroxidase, 0.01% Triton X-100) were added and blended and absorbance at 550-700 nm was measured and used as a prevalue. […] 1 mM choline chloride was diluted with 2× assay buffer up to 7 steps in 2-fold serial dilution, R^1 solution was treated similarly and the absorbance was measured. […]
At 14 days from the bleomycin administration, plasma, BALF and lung tissue were collected. BALF was recovered and the concentration of LPA (18:2) in BALF (FIG. 6) was measured. […]

## COc1ccc(-c2cnnc(OC[C@H]3CC[C@H](C(F)(F)F)CC3)c2)nc1[C@H]1C[C@@H]1C(=O)O [Example 5, (1S,2S)-2-[3-methoxy-6-(6-{[trans-4-(trifluoromethyl)cyclohexyl]methoxy}pyridazin-4-yl)pyridin-2-yl]cyclopropanecarboxylic Acid]
  ATX activity in the plasma: suppressed ATX activity in the plasma completely
